Columns and labels:
Type in all cases: functional
786-0 [1] = assay: Growth inhibition of human 786-0 cells assessed as cell growth at 0.1 uM incubated for 48 hrs by sulforhodamine B assay relative to control; settings: 786-0, 48 h, read-out: Activity
COLO 205 [2] = assay: Growth inhibition of human COLO205 cells assessed as cell growth at 0.01 uM incubated for 48 hrs by sulforhodamine B assay relative to control; settings: COLO 205, 48 h, read-out: Activity
SNB-75 = assay: Growth inhibition of human SNB75 cells assessed as cell growth at 0.01 uM incubated for 48 hrs by sulforhodamine B assay relative to control; settings: SNB-75, 48 h, read-out: Activity
SK-MEL-2 = assay: Growth inhibition of human SK-MEL-2 cells assessed as cell growth at 1 uM incubated for 48 hrs by sulforhodamine B assay relative to control; settings: SK-MEL-2, 48 h, read-out: Activity
UO-31 = assay: Growth inhibition of human UO31 cells assessed as cell growth at 1 uM incubated for 48 hrs by sulforhodamine B assay relative to control; settings: UO-31, 48 h, read-out: Activity
CCRF-CEM = assay: Growth inhibition of human CCRF-CEM cells assessed as cell growth at 100 uM incubated for 48 hrs by sulforhodamine B assay relative to control; settings: read-out: Activity
NCI-H23 [3] = assay: Growth inhibition of human NCI-H23 cells assessed as cell growth at 0.1 uM incubated for 48 hrs by sulforhodamine B assay relative to control; settings: NCI-H23, 48 h, read-out: Activity
SNB-19 [4] = assay: Growth inhibition of human SNB19 cells incubated for 48 hrs by sulforhodamine B assay; settings: SNB-19, 48 h
786-0 [5] = assay: Growth inhibition of human 786-0 cells assessed as cell growth at 1 uM incubated for 48 hrs by sulforhodamine B assay relative to control; settings: 786-0, 48 h, read-out: Activity
SF-539 = assay: Growth inhibition of human SF539 cells assessed as cell growth at 0.1 uM incubated for 48 hrs by sulforhodamine B assay relative to control; settings: SF-539, 48 h, read-out: Activity
SK-MEL-5 = assay: Growth inhibition of human SK-MEL-5 cells assessed as cell growth at 0.1 uM incubated for 48 hrs by sulforhodamine B assay relative to control; settings: SK-MEL-5, 48 h, read-out: Activity
OVCAR-4 = assay: Growth inhibition of human OVCAR4 cells assessed as cell growth at 1 uM incubated for 48 hrs by sulforhodamine B assay relative to control; settings: OVCAR-4, 48 h, read-out: Activity
RPMI-8226 = assay: Growth inhibition of human RPMI8226 cells assessed as cell growth at 1 uM incubated for 48 hrs by sulforhodamine B assay relative to control; settings: RPMI-8226, 48 h, read-out: Activity
SNB-19 [6] = assay: Growth inhibition of human SNB19 cells assessed as cell growth at 1 uM incubated for 48 hrs by sulforhodamine B assay relative to control; settings: SNB-19, 48 h, read-out: Activity
NCI-H522 [7] = assay: Growth inhibition of human NCI-H522 cells incubated for 48 hrs by sulforhodamine B assay; settings: NCI-H522, 48 h
COLO 205 [8] = assay: Growth inhibition of human COLO205 cells assessed as cell growth at 1 uM incubated for 48 hrs by sulforhodamine B assay relative to control; settings: COLO 205, 48 h, read-out: Activity
SK-MEL-28 = assay: Growth inhibition of human SK-MEL-28 cells assessed as cell growth at 100 uM incubated for 48 hrs by sulforhodamine B assay relative to control; settings: SK-MEL-28, 48 h, read-out: Activity
UACC-257 = assay: Growth inhibition of human UACC257 cells incubated for 48 hrs by sulforhodamine B assay; settings: UACC-257, 48 h
K562 [9] = assay: Growth inhibition of human K562 cells incubated for 48 hrs by sulforhodamine B assay; settings: K562, 48 h
NCI-H522 [10] = assay: Growth inhibition of human NCI-H522 cells assessed as cell growth at 0.1 uM incubated for 48 hrs by sulforhodamine B assay relative to control; settings: NCI-H522, 48 h, read-out: Activity
HT-29 = assay: Growth inhibition of human HT-29 cells assessed as cell growth at 0.01 uM incubated for 48 hrs by sulforhodamine B assay relative to control; settings: HT-29, 48 h, read-out: Activity
KM12 = assay: Growth inhibition of human KM12 cells assessed as cell growth at 1 uM incubated for 48 hrs by sulforhodamine B assay relative to control; settings: KM12, 48 h, read-out: Activity
NCI-H23 [11] = assay: Growth inhibition of human NCI-H23 cells assessed as cell growth at 1 uM incubated for 48 hrs by sulforhodamine B assay relative to control; settings: NCI-H23, 48 h, read-out: Activity
HOP-92 = assay: Growth inhibition of human HOP92 cells incubated for 48 hrs by sulforhodamine B assay; settings: HOP-92, 48 h
SW-620 = assay: Growth inhibition of human SW620 cells assessed as cell growth at 0.01 uM incubated for 48 hrs by sulforhodamine B assay relative to control; settings: SW-620, 48 h, read-out: Activity
NCI-H522 [12] = assay: Growth inhibition of human NCI-H522 cells assessed as cell growth at 1 uM incubated for 48 hrs by sulforhodamine B assay relative to control; settings: NCI-H522, 48 h, read-out: Activity
HCT-116 = assay: Growth inhibition of human HCT116 cells assessed as cell growth at 100 uM incubated for 48 hrs by sulforhodamine B assay relative to control; settings: HCT-116, 48 h, read-out: Activity
HL-60(TB) = assay: Growth inhibition of human HL-60(TB) cells assessed as cell growth at 100 uM incubated for 48 hrs by sulforhodamine B assay relative to control; settings: HL-60, 48 h, read-out: Activity
EKVX = assay: Growth inhibition of human EKVX cells assessed as cell growth at 0.01 uM incubated for 48 hrs by sulforhodamine B assay relative to control; settings: read-out: Activity
BT-549 = assay: Growth inhibition of human BT549 cells assessed as cell growth at 0.1 uM incubated for 48 hrs by sulforhodamine B assay relative to control; settings: BT-549, 48 h, read-out: Activity
K562 [13] = assay: Growth inhibition of human K562 cells assessed as cell growth at 0.01 uM incubated for 48 hrs by sulforhodamine B assay relative to control; settings: K562, 48 h, read-out: Activity
[14] = read-out: LC50 (the source's name)
[15] = read-out: pLC50 (the source's name) (converted)

c1ccc2c3c([nH]c2c1)C(c1ccc(C2NCCc4c2[nH]c2ccccc42)cc1)NCC3 (racemic)
growth at 0.1 µM (786-0 [1]): 103%
growth at 0.01 µM (COLO 205 [2]): 95%
growth at 0.01 µM (SNB-75): 78%
growth at 1 µM (SK-MEL-2): 86%
growth at 1 µM (UO-31): 52%
growth at 100 µM (CCRF-CEM): 68%
growth at 0.1 µM (NCI-H23 [3]): 88%
GI50 (SNB-19 [4]; read-out: GI50): 1.73 µM
CC50 (SNB-19 [4]; [14]): 7.25 µM
TGI (SNB-19 [4]; read-out: TGI): 3.54 µM
GI50 (SNB-19 [4]; read-out: pGI50 (converted)): 1.74 µM
CC50 (SNB-19 [4]; [15]): 7.24 µM
TGI (SNB-19 [4]; read-out: pTGI (converted)): 3.55 µM
growth at 1 µM (786-0 [5]): 92%
growth at 0.1 µM (SF-539): 95%
growth at 0.1 µM (SK-MEL-5): 101%
growth at 1 µM (OVCAR-4): 59%
growth at 1 µM (RPMI-8226): 2%
growth at 1 µM (SNB-19 [6]): 88%
CC50 (NCI-H522 [7]; [14]): 5.21 µM
GI50 (NCI-H522 [7]; read-out: pGI50 (converted)): 0.417 µM
CC50 (NCI-H522 [7]; [15]): 5.25 µM
TGI (NCI-H522 [7]; read-out: pTGI (converted)): 1.48 µM
growth at 1 µM (COLO 205 [8]): 48%
growth at 100 µM (SK-MEL-28): 93%
GI50 (UACC-257; read-out: GI50): 1.19 µM
CC50 (UACC-257; [14]): 6.5 µM
TGI (UACC-257; read-out: TGI): 3.52 µM
GI50 (UACC-257; read-out: pGI50 (converted)): 1.91 µM
CC50 (UACC-257; [15]): 6.46 µM
TGI (UACC-257; read-out: pTGI (converted)): 3.55 µM
GI50 (K562 [9]; read-out: GI50): 2.44 µM
CC50 (K562 [9]; [14]): 9.75 µM
TGI (K562 [9]; read-out: TGI): 4.88 µM
GI50 (K562 [9]; read-out: pGI50 (converted)): 0.245 µM
CC50 (K562 [9]; [15]): 0.977 µM
TGI (K562 [9]; read-out: pTGI (converted)): 4.9 µM
growth at 0.1 µM (NCI-H522 [10]): 105%
growth at 0.01 µM (HT-29): 104%
growth at 1 µM (KM12): 54%
growth at 1 µM (NCI-H23 [11]): 85%
CC50 (HOP-92; [14]): 9.59 µM
GI50 (HOP-92; read-out: pGI50 (converted)): 0.724 µM
CC50 (HOP-92; [15]): 9.55 µM
TGI (HOP-92; read-out: pTGI (converted)): 2.88 µM
growth at 0.01 µM (SW-620): 101%
growth at 1 µM (NCI-H522 [12]): 16%
growth at 100 µM (HCT-116): 92%
growth at 100 µM (HL-60(TB)): 83%
growth at 0.01 µM (EKVX): 88%
growth at 0.1 µM (BT-549): 95%
growth at 0.01 µM (K562 [13]): 113%

c1ccc2[nH]c(-c3ccc(-c4nccc5c4[nH]c4ccccc45)cc3)nc2c1
growth at 0.1 µM (786-0 [1]): 92%
growth at 0.01 µM (COLO 205 [2]): 94%
growth at 0.01 µM (SNB-75): 81%
growth at 1 µM (SK-MEL-2): 94%
growth at 1 µM (UO-31): 90%
growth at 100 µM (CCRF-CEM): 29%
growth at 0.1 µM (NCI-H23 [3]): 93%
GI50 (SNB-19 [4]; read-out: GI50): 4.21 µM
CC50 (SNB-19 [4]; [14]): > 1 µM
GI50 (SNB-19 [4]; read-out: pGI50 (converted)): 4.17 µM
CC50 (SNB-19 [4]; [15]): > 100 µM
TGI (SNB-19 [4]; read-out: pTGI (converted)): 30.2 µM
growth at 1 µM (786-0 [5]): 89%
growth at 0.1 µM (SF-539): 98%
growth at 0.1 µM (SK-MEL-5): 100%
growth at 1 µM (OVCAR-4): 83%
growth at 1 µM (RPMI-8226): 106%
growth at 1 µM (SNB-19 [6]): 88%
GI50 (NCI-H522 [7]; read-out: GI50): 2.06 µM
CC50 (NCI-H522 [7]; [14]): > 1 µM
TGI (NCI-H522 [7]; read-out: TGI): 5.04 µM
GI50 (NCI-H522 [7]; read-out: pGI50 (converted)): 2.04 µM
CC50 (NCI-H522 [7]; [15]): > 100 µM
TGI (NCI-H522 [7]; read-out: pTGI (converted)): 5.01 µM
growth at 1 µM (COLO 205 [8]): 93%
growth at 100 µM (SK-MEL-28): 69%
GI50 (UACC-257; read-out: GI50): 1.83 µM
CC50 (UACC-257; [14]): 6.73 µM
TGI (UACC-257; read-out: TGI): 3.5 µM
CC50 (UACC-257; [15]): 6.76 µM
GI50 (K562 [9]; read-out: GI50): 2.33 µM
CC50 (K562 [9]; [14]): 4.24 µM
TGI (K562 [9]; read-out: TGI): 5.47 µM
GI50 (K562 [9]; read-out: pGI50 (converted)): 2.34 µM
CC50 (K562 [9]; [15]): 42.7 µM
TGI (K562 [9]; read-out: pTGI (converted)): 5.5 µM
growth at 0.1 µM (NCI-H522 [10]): 94%
growth at 0.01 µM (HT-29): 100%
growth at 1 µM (KM12): 89%
growth at 1 µM (NCI-H23 [11]): 88%
GI50 (HOP-92; read-out: GI50): 2.06 µM
CC50 (HOP-92; [14]): 2.98 µM
TGI (HOP-92; read-out: TGI): 5.79 µM
GI50 (HOP-92; read-out: pGI50 (converted)): 2.04 µM
CC50 (HOP-92; [15]): 29.5 µM
TGI (HOP-92; read-out: pTGI (converted)): 5.75 µM
growth at 0.01 µM (SW-620): 103%
growth at 1 µM (NCI-H522 [12]): 91%
growth at 100 µM (HCT-116): 78%
growth at 100 µM (HL-60(TB)): 40%
growth at 0.01 µM (EKVX): 94%
growth at 0.1 µM (BT-549): 92%
growth at 0.01 µM (K562 [13]): 104%

From ChEMBL document CHEMBL4004838, “Design and synthesis of novel phenyl -1, 4-beta-carboline-hybrid molecules as potential anticancer agents” (Eur J Med Chem, 2017)
